Assay results from publication PMC10734772 (Turkish Journal of Chemistry, 2021).

Legend:
Type in all cases: cell-based
[1] = system: K562, Nalm-6, Molt-4, Reh, Jurkat, Hek293T cell lines; assay: MTT assay, overall judgement over all cell lines; details: overall judgement in words; for 6 and 10: on all cell lines, except Reh
Procedure, shortened: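 MTT viability assay run across a range of compound concentrations in leukemic lines, BCR-ABL positive K562 and BCR-ABL negative Nalm-6, Molt-4, Reh, Jurkat, plus non-leukemic Hek293T. Viability rate calculated per concentration.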

Reh = assay: MTT assay, Reh cells; details: Homo sapiens, 24 h, read-out: Viability rate
[2] = MTT assay, Hek293T non-leukemic control cells; details: human, read-out: Viability rate
Jurkat = assay: MTT assay, Jurkat cells; details: Homo sapiens, 24 h, read-out: Viability rate
Nalm-6 = assay: MTT assay, Nalm-6 cells; details: Homo sapiens, 24 h, MTT, read-out: Viability rate
Procedure: (§1) K562, Jurkat and Molt-4 cell lines were seeded as 4x10^5/ml, Reh and Nalm-6 cell lines were seeded 5x10^5/ml, Hek293T cell line was seed as 2x10^5/ml.
(§2) MTT assay is a 3-day test. On the first day, cell count was performed in Bio Rad TC-20 device with the help of trypan blue, each cell line was prepared by diluting to the specified concentrations and seeded in a 96-well plate as 100μL to each well and incubated for 1 day.
(§3) On the second day, stock solutions were subsequently diluted to various concentrations (0.3–200 μM) with related medium prior to experiments. Specified concentrations of the compounds were seeded in a 96-well plate as 100μL to each well and incubated for 24 h.
(§4) After incubation (on the third day), to precipitate leukemia cells, the cell plate was centrifuged at 1500 rpm for 5 min. […] The 50 μl of supernatant was discarded from each well and 100 μl of DMSO was added to dissolve the formazan. Plates were shaken for 45 min to dissolve the dye. Then the optical density of each well was measured by using Thermo VarioSkan Flush Multimode Reader Quantum ST5-1100 at 570 nm wavelength.
(§5) Subsequently, viability rate of the cells at each concentration, as percentage, was determined by following formula (1):
(§6) Viability rate (%)=100-[(OD(control)-OD(sample))/OD(control)×100].OD=Optical Density
(§7) The IC50 values were calculated by using GraphPad Prism. All the data presented as the mean of 6 replicates. […] Statistical analysis was performed using dose-response inhibition, log(inhibitor) vs response-variable slope, least squares (ordinary) fit.

Molt-4 = assay: MTT assay, Molt-4 cells; details: Homo sapiens, MOLT-4, 24 h, read-out: Viability rate
K562 = assay: MTT assay, K562 cells; details: Homo sapiens, 24 h, MTT, read-out: Viability rate
Procedure: as §1, §2, §3, §4, §5, §6, §7

Q: Which results are given for Cc1ccnc(Nc2cc(NC(=O)c3ccc(CN4CCOCC4)cc3)ccc2C)n1 [Compound 8, N-(4-Methyl-3-((4-methylpyrimidin-2-yl)amino)phenyl)-4-(morhpolinomethyl)benzamide]?
A: anticancer activity according to MTT assay results [1]: relatively lower activity; viability at 0.3 µM (Reh; 0.3 μM): 100.8 ± 0.03%; viability at 0.5 µM (Reh; 0.5 μM): 102.4 ± 0.02%; viability at 1 µM (Reh; 1 μM): 102 ± 0.01%; viability at 3 µM (Reh; 3 μM): 104.8 ± 0.02%; viability at 5 µM (Reh; 5 μM): 103.5 ± 0.01%; viability at 10 µM (Reh; 10 μM): 103.1 ± 0.01%; viability at 15 µM (Reh; 15 μM): 100.3 ± 0.01%; viability at 20 µM (Reh; 20 μM): 100.6 ± 0.02%; viability at 30 µM (Reh; 30 μM): 102.4 ± 0.04%; viability at 50 µM (Reh; 50 μM): 99.4 ± 0.02%; viability at 70 µM (Reh; 70 μM): 94.2 ± 0.03%; viability at 100 µM (Reh; 100 μM): 91.1 ± 0.01%; viability at 150 µM (Reh; 150 μM): 91.1 ± 0.02%; viability at 200 µM (Reh; 200 μM): 91.2 ± 0.04%; viability at 24 h, 0.3 µM ([2]; Hek293T cells (non-leukemic control cell line), 0.3 μM): 95.7 ± 0.03%; viability at 24 h, 0.5 µM ([2]; Hek293T cells (non-leukemic control cell line), 0.5 μM): 94.8 ± 0.07%; viability at 24 h, 3 µM ([2]; Hek293T cells (non-leukemic control cell line), 3 μM): 92.9 ± 0.04%; viability at 24 h, 5 µM ([2]; Hek293T cells (non-leukemic control cell line), 5 μM): 91.2 ± 0.09%; viability at 24 h, 10 µM ([2]; Hek293T cells (non-leukemic control cell line), 10 μM): 90.8 ± 0.05%; viability at 24 h, 15 µM ([2]; Hek293T cells (non-leukemic control cell line), 15 μM): 90.1 ± 0.07%; viability at 24 h, 20 µM ([2]; Hek293T cells (non-leukemic control cell line), 20 μM): 90 ± 0.04%; viability at 24 h, 30 µM ([2]; Hek293T cells (non-leukemic control cell line), 30 μM): 84.9 ± 0.04%; viability at 24 h, 50 µM ([2]; Hek293T cells (non-leukemic control cell line), 50 μM): 81.3 ± 0.02%; viability at 24 h, 70 µM ([2]; Hek293T cells (non-leukemic control cell line), 70 μM): 66.9 ± 0.02%; viability at 24 h, 100 µM ([2]; Hek293T cells (non-leukemic control cell line), 100 μM): 66.4 ± 0.03%; viability at 24 h, 150 µM ([2]; Hek293T cells (non-leukemic control cell line), 150 μM): 59.4 ± 0.01%; viability at 24 h, 200 µM ([2]; Hek293T cells (non-leukemic control cell line), 200 μM): 58.2 ± 0.01%; viability at 24 h, 1 µM ([2]; Hek293T cells, 1 μM): 94.3 ± 0.06%; viability at 0.3 µM (Jurkat; 0.3 μM): 81.7 ± 0.08%; viability at 0.5 µM (Jurkat; 0.5 μM): 78.7 ± 0.03%; viability at 1 µM (Jurkat; 1 μM): 75.8 ± 0.04%; viability at 3 µM (Jurkat; 3 μM): 76.8 ± 0.04%; viability at 5 µM (Jurkat; 5 μM): 78.8 ± 0.02%; viability at 10 µM (Jurkat; 10 μM): 78.5 ± 0.05%; viability at 15 µM (Jurkat; 15 μM): 77.6 ± 0.05%; viability at 20 µM (Jurkat; 20 μM): 77.6 ± 0.04%; viability at 30 µM (Jurkat; 30 μM): 66.1 ± 0.07%; viability at 50 µM (Jurkat; 50 μM): 65.4 ± 0.03%; viability at 70 µM (Jurkat; 70 μM): 65.3 ± 0.04%; viability at 100 µM (Jurkat; 100 μM): 63 ± 0.02%; viability at 150 µM (Jurkat; 150 μM): 62.4 ± 0.08%; viability at 200 µM (Jurkat; 200 μM): 62.3 ± 0.05%; viability at 0.3 µM (Nalm-6; Nalm-6, 0.3 μM): 102.8 ± 0.04%; viability at 0.5 µM (Nalm-6; Nalm-6, 0.5 μM): 101.8 ± 0.04%; viability at 1 µM (Nalm-6; Nalm-6, 1 μM): 102.7 ± 0.02%; viability at 3 µM (Nalm-6; Nalm-6, 3 μM): 99.6 ± 0.04%; viability at 5 µM (Nalm-6; Nalm-6, 5 μM): 102.5 ± 0.02%; viability at 10 µM (Nalm-6; Nalm-6, 10 μM): 100.6 ± 0.03%; viability at 15 µM (Nalm-6; Nalm-6, 15 μM): 100 ± 0.03%; viability at 20 µM (Nalm-6; Nalm-6, 20 μM): 94.2 ± 0.07%; viability at 30 µM (Nalm-6; Nalm-6, 30 μM): 95.9 ± 0.07%; viability at 50 µM (Nalm-6; Nalm-6, 50 μM): 91.9 ± 0.06%; viability at 70 µM (Nalm-6; Nalm-6, 70 μM): 87.7 ± 0.02%; viability at 100 µM (Nalm-6; Nalm-6, 100 μM): 87.4 ± 0.02%; viability at 150 µM (Nalm-6; Nalm-6, 150 μM): 81.3 ± 0.02%; viability at 200 µM (Nalm-6; Nalm-6, 200 μM): 70.8 ± 0.01%; viability at 0.3 µM (Molt-4; Molt-4, 0.3 μM): 98.5 ± 0.09%; viability at 0.5 µM (Molt-4; Molt-4, 0.5 μM): 98.5 ± 0.11%; viability at 1 µM (Molt-4; Molt-4, 1 μM): 95.4 ± 0.11%; viability at 3 µM (Molt-4; Molt-4, 3 μM): 89.2 ± 0.07%; viability at 5 µM (Molt-4; Molt-4, 5 μM): 90.7 ± 0.07%; viability at 10 µM (Molt-4; Molt-4, 10 μM): 90.4 ± 0.07%; viability at 15 µM (Molt-4; Molt-4, 15 μM): 90.8 ± 0.05%; viability at 20 µM (Molt-4; Molt-4, 20 μM): 88.3 ± 0.04%; viability at 30 µM (Molt-4; Molt-4, 30 μM): 85.8 ± 0.04%; viability at 50 µM (Molt-4; Molt-4, 50 μM): 83.6 ± 0.02%; viability at 70 µM (Molt-4; Molt-4, 70 μM): 82.6 ± 0.09%; viability at 100 µM (Molt-4; Molt-4, 100 μM): 81.5 ± 0.09%; viability at 150 µM (Molt-4; Molt-4, 150 μM): 78.9 ± 0.05%; viability at 200 µM (Molt-4; Molt-4, 200 μM): 78.8 ± 0.07%; viability at 0.3 µM (K562; K562, 0.3 μM): 86.2 ± 0.09%; viability at 0.5 µM (K562; K562, 0.5 μM): 85.3 ± 0.03%; viability at 1 µM (K562; K562, 1 μM): 84.7 ± 0.05%; viability at 3 µM (K562; K562, 3 μM): 84.7 ± 0.06%; viability at 5 µM (K562; K562, 5 μM): 76.8 ± 0.11%; viability at 10 µM (K562; K562, 10 μM): 76.7 ± 0.05%; viability at 15 µM (K562; K562, 15 μM): 76.7 ± 0.08%; viability at 20 µM (K562; K562, 20 μM): 76.6 ± 0.04%; viability at 30 µM (K562; K562, 30 μM): 75.6 ± 0.09%; viability at 50 µM (K562; K562, 50 μM): 72.5 ± 0.07%; viability at 70 µM (K562; K562, 70 μM): 72.6 ± 0.08%; viability at 100 µM (K562; K562, 100 μM): 66.4 ± 0.02%; viability at 150 µM (K562; K562, 150 μM): 65.3 ± 0.06%; viability at 200 µM (K562; K562, 200 μM): 65.2 ± 0.06%
